Read-outs that look alike come from different tables or passages of the source.
System: P. falciparum K1 (strain resistant to chloroquine and pyrimethamine), erythrocytic stages
Assay: Plasmodium falciparum in vitro assay, [3H] hypoxanthine incorporation
Format: cell-based
Details: [3H] hypoxanthine incorporation, read-out: IC50 (nM) on K1
In short: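 Chloroquine/pyrimethamine-resistant K1 erythrocytic cultures (2.5% haematocrit, 0.3% parasitaemia, hypoxanthine-free RPMI with Albumax) exposed to seven doubling dilutions at 37 °C under low O2.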

[1] = Plasmodium falciparum, K1, P. falciparum strain K1

COc1ccc(C=CC(=O)N(Cc2ccc(N3CCOCC3)nc2)[C@@H](Cc2ccccc2)C(=O)N2CCC(Cc3ccccc3)CC2)cc1 [Example 145, (S)-N-[1-Benzyl-2-(4-benzyl-piperidin-1-yl)-2-oxo-ethyl]-3-(4-methoxy-phenyl)-N-(6-morpholin-4-yl-pyridin-3-ylmethyl)-acrylamide]
IC50 [1]: 5 nM

COCCN(C)C(=O)[C@H](Cc1ccccc1)N(Cc1ccc(N2CCN(C(C)=O)CC2)cc1)C(=O)C=Cc1ccc(C)cn1 [Example 114, (S)-N-[4-(4-Acetyl-piperazin-1-yl)-benzyl]-N-{1-[(2-methoxy-ethyl)-methyl-carbamoyl]-2-phenyl-ethyl}-3-(5-methyl-pyridin-2-yl)-acrylamide]
IC50 [1]: 107 nM

COCCN(C)C(=O)[C@H](Cc1ccccc1)N(Cc1ccc(-c2ccncc2)cc1)C(=O)C=Cc1ccc(C)cn1 [Example 100, (S)-N-{1-[(2-Methoxy-ethyl)-methyl-carbamoyl]-2-phenyl-ethyl}-3-(5-methyl-pyridin-2-yl)-N-(4-pyridin-4-yl-benzyl)-acrylamide]
IC50 [1]: 12 nM

CN(C)C1CCN(C(=O)C(Cc2ccnn2C)N(Cc2ccc(-c3ccccn3)cc2)C(=O)C=Cc2ccc(C(F)(F)F)cc2)CC1 (racemic) [Example 142]
IC50 [1]: 460 nM

CC(=O)N1CCN(c2ccc(CN(C(=O)C=Cc3ccc(C(F)(F)F)nc3)[C@@H](Cc3ccccc3)C(=O)N(C)CCOCCOCc3ccccc3)cc2)CC1 [Example 216, (S)-N-[4-(4-Acetyl-piperazin-1-yl)-benzyl]-N-(1-{[2-(2-benzyloxy-ethoxy)-ethyl]-methyl-carbamoyl}-2-phenyl-ethyl)-3-(6-trifluoromethyl-pyridin-3-yl)-acrylamide]
IC50 [1]: 94 nM

CC(=O)N1CCN(c2ccc(CN(C(=O)C=Cc3ccc(C(F)(F)F)cc3)[C@@H](Cc3ccccc3)C(=O)N(C)CCN(C)Cc3ccccc3)cc2)CC1 [Example 254, (S)-N-[4-(4-Acetyl-piperazin-1-yl)-benzyl]-N-(1-{[2-(benzyl-methyl-amino)-ethyl]-methyl-carbamoyl}-2-phenyl-ethyl)-3-(4-trifluoromethyl-phenyl)-acrylamide]
IC50 [1]: 76 nM

CC(=O)N1CCN(c2ccc(CN(C(=O)C=Cc3ccc(C(F)(F)F)cc3)[C@@H](Cc3ccccc3)C(=O)N(C)CCOCc3cccc(OC(F)(F)F)c3)cc2)CC1 [Example 186, (S)-N-[4-(4-Acetyl-piperazin-1-yl)-benzyl]-N-(1-{methyl-[2-(3-trifluoromethoxy-benzyloxy)-ethyl]-carbamoyl}-2-phenyl-ethyl)-3-(4-trifluoromethyl-phenyl)-acrylamide, formic acid]
IC50 [1]: 58 nM

COc1ccc(C=CC(=O)N(Cc2ccc(-c3cncnc3)cc2)[C@@H](Cc2ccccc2)C(=O)N2CCC(N(C)C)CC2)cn1 [Example 41, (S)-N-[1-Benzyl-2-(4-dimethylamino-piperidin-1-yl)-2-oxo-ethyl]-3-(6-methoxy-pyridin-3-yl)-N-(4-pyrimidin-5-yl-benzyl)-acrylamide]
IC50 [1]: 169 nM

COCCN(C)C(=O)[C@H](Cc1ccccc1)N(Cc1ccc(-c2ccccn2)cc1)C(=O)C=Cc1cnc(C)nc1 [Example 83, (S)-N-{1-[(2-Methoxy-ethyl)-methyl-carbamoyl]-2-phenyl-ethyl}-3-(2-methyl-pyrimidin-5-yl)-N-(4-pyridin-2-yl-benzyl)-acrylamide]
IC50 [1]: 209 nM

O=C(NCCN1CCCCC1)[C@H](Cc1ccccc1)N(Cc1ccc(-c2ccccn2)cc1)C(=O)C=Cc1ccc(C(F)(F)F)cc1 [Example 153]
IC50 [1]: 268 nM

(S)-N-[1-Benzyl-2-oxo-2-(4-phenyl-piperidin-1-yl)-ethyl]-N-(4-pyrimidin-5-yl-benzyl)-3-(6-trifluoromethyl-pyridin-3-yl)-acrylamide [Example 49]
IC50 (P. falciparum strain K1): 43 nM

CC(=O)N1CCN(c2ccc(CN(C(=O)C=Cc3ccc(C(F)(F)F)cc3)[C@@H](Cc3ccccc3)C(=O)N(C)CCN(C)Cc3nccs3)cc2)CC1 [Example 248, (S)-N-[4-(4-Acetyl-piperazin-1-yl)-benzyl]-N-(1-{methyl-[2-(methyl-thiazol-2-ylmethyl-amino)-ethyl]-carbamoyl}-2-phenyl-ethyl)-3-(4-trifluoromethyl-phenyl)-acrylamide]
IC50 [1]: 21 nM

COc1cc(CN(C)CCN(C)C(=O)[C@H](Cc2ccccc2)N(Cc2ccc(N3CCOCC3)cc2)C(=O)C=Cc2ccc(C(F)(F)F)cc2)cc(OC)c1 [Example 235, (S)-N-[1-({2-[(3,5-Dimethoxy-benzyl)-methyl-amino]-ethyl}-methyl-carbamoyl)-2-phenyl-ethyl]-N-(4-morpholin-4-yl-benzyl)-3-(4-trifluoromethyl-phenyl)-acrylamide]
IC50 [1]: 58 nM

COc1cccc(COCCN(C)C(=O)[C@H](Cc2ccccc2)N(Cc2ccc(N3CCN(C(C)=O)CC3)cc2)C(=O)C=Cc2ccc(C(F)(F)F)cc2)c1 [Example 187, (S)-N-[4-(4-Acetyl-piperazin-1-yl)-benzyl]-N-(1-{[2-(3-methoxy-benzyloxy)-ethyl]-methyl-carbamoyl}-2-phenyl-ethyl)-3-(4-trifluoromethyl-phenyl)-acrylamide, formic acid]
IC50 [1]: 7 nM

COCCN(C)C(=O)[C@H](Cc1ccccc1)N(Cc1ccc(N2CCOCC2)cc1)C(=O)C=Cc1cc(C)nn1C [Example 59, (S)-3-(2,5-Dimethyl-2H-pyrazol-3-yl)-N-{1-[(2-methoxy-ethyl)-methyl-carbamoyl]-2-phenyl-ethyl}-N-(4-morpholin-4-yl-benzyl)-acrylamide]
IC50 [1]: 121 nM

COCCN(C)C(=O)[C@H](Cc1ccccc1)N(Cc1ccc(-c2ccccn2)cc1)C(=O)C=Cc1cnn(C)c1C [Example 90, (S)-3-(1,5-Dimethyl-1H-pyrazol-4-yl)-N-{1-[(2-methoxy-ethyl)-methyl-carbamoyl]-2-phenyl-ethyl}-N-(4-pyridin-2-yl-benzyl)-acrylamide]
IC50 [1]: 43 nM

COCCN(C)C(=O)[C@H](Cc1ccccc1)N(Cc1ccc(-c2ccccn2)cc1)C(=O)C=Cc1cnc(C)n1C [Example 76, (S)-3-(2,3-Dimethyl-3H-imidazol-4-yl)-N-{1-[(2-methoxy-ethyl)-methyl-carbamoyl]-2-phenyl-ethyl}-N-(4-pyridin-2-yl-benzyl)-acrylamide]
IC50 [1]: 163 nM

CC(=O)N1CCN(c2ccc(CN(C(=O)C=Cc3ccc(C(F)(F)F)cc3)[C@@H](Cc3ccccc3)C(=O)N(C)CCN(C)Cc3cncnc3)cc2)CC1 [Example 250, (S)-N-[4-(4-Acetyl-piperazin-1-yl)-benzyl]-N-(1-{methyl-[2-(methyl-pyrimidin-5-ylmethyl-amino)-ethyl]-carbamoyl}-2-phenyl-ethyl)-3-(4-trifluoromethyl-phenyl)-acrylamide]
IC50 [1]: 27 nM

CN(CCN(C)C(=O)[C@H](Cc1ccccc1)N(Cc1ccc(N2CCOCC2)cc1)C(=O)C=Cc1ccc(C(F)(F)F)cc1)Cc1cncnc1 [Example 267, (S)-N-(1-{Methyl-[2-(methyl-pyrimidin-5-ylmethyl-amino)-ethyl]-carbamoyl}-2-phenyl-ethyl)-N-(4-morpholin-4-yl-benzyl)-3-(4-trifluoromethyl-phenyl)-acrylamide]
IC50 [1]: 40 nM

COCCN(C)C(=O)[C@H](Cc1ccccc1)N(Cc1ccc(-c2ccccn2)cc1)C(=O)C=Cc1ccc(C)nc1 [Example 84, (S)-N-{1-[(2-Methoxy-ethyl)-methyl-carbamoyl]-2-phenyl-ethyl}-3-(6-methyl-pyridin-3-yl)-N-(4-pyridin-2-yl-benzyl)-acrylamide]
IC50 [1]: 27 nM
